{"source": "patent US6576190B1", "about": "“Method and apparatus for sterilizing and disinfecting bedclothes using ultraviolet rays and ozone” (Bioneer Corporation, priority 1999, dated 2003)", "key": {"[1]": {"system": "Candida albicans KCTC 7965", "test": "Test for sterilizing microorganisms, ozone exposure of agar culture", "type": "cell-based", "conditions": "C. albicans, ozone 70 ppm, humidity 50%, no direct UV", "excerpt": "(§1) The microorganisms used for the sterilization test were Escherichia coli DH12S, Staphylococcus aureus KCTC 1621 and Candida albicans KCTC 7965, which are known as pathogenic microorganisms. An UV/O3 lamp ([…]) was used as the generator for generating ultraviolet rays and ozone.\n(§2) Each of the microorganisms was cultivated on appropriate culture medium used commonly: Escherichia coli was cultivated on LB culture medium, Staphylococcus aureus was cultivated on Tryptic Soy culture medium; and Candida albicans was cultivated on YM culture medium. A sample of the microorganism was prepared as follows: After each of the microorganisms was cultivated on agar culture medium, one colony was taken. And then the colony was inoculated into broths of 5 ml, which was cultivated for two hours. The sample prepared as mentioned above was kept in cold storage for the following use. The broths used for cultivation were diluted gradually from an undiluted solution to 10-8, and then they were painted over the agar culture medium. One control was obtained from each of the diluted samples, and seven samples for test were obtained from each of the diluted samples. The control and samples were subject to pre-incubation in the incubator with the temperature of 37° C. for 30 minutes, which was used for sterilization test.\n(§3) The concentration of the ozone in the sterilizing and disinfecting room reached 50 ppm within two or three minutes. And the concentration of the ozone was adjusted so that it was maintained to 70 ppm.\n(§4) The humidity was maintained to 50%. The agar culture medium was placed on several position where it was not exposed to the ultraviolet rays and it had good ventilation. One agar culture medium corresponding to the bedclothes as a test sample was taken every ten minutes after the generator for generating the ultraviolet rays and the ozone was operated. The agar culture medium was cultivated together with the control sample in the incubator with the temperature of 37° C. for 48 hours. […] The number of the real microorganisms and the number of the surviving microorganisms were added together taking the number of the colony and the dilution rate of each sample into account. The test as mentioned above was repeated three times for the purpose of obtaining the statistical effectiveness."}, "Escherichia coli DH12S": {"system": "Escherichia coli DH12S", "test": "Test for sterilizing microorganisms, ozone exposure of agar culture", "type": "cell-based", "conditions": "E. coli, ozone 70 ppm, humidity 50%, no direct UV", "excerpt": "as §1, §2, §3, §4"}, "[2]": {"system": "Staphylococcus aureus KCTC 1621", "test": "Test for sterilizing microorganisms, ozone exposure of agar culture", "type": "cell-based", "conditions": "S. aureus, ozone 70 ppm, humidity 50%, no direct UV", "excerpt": "as §1, §2, §3, §4"}, "[3]": {"system": "house dust mites (Dermatophagoides farinae, Dermatophagoides pterohyssinus and Tyrophagus putrescentiae mixed)", "test": "Test for killing mites", "type": "in vivo", "conditions": "ozone 50 ppm, humidity 72%, 2 hours, no direct UV", "excerpt": "Mites used for test was the house dust mites (samples containing Dermatophagoides farinae, Dermatophagoides pterohyssinus and Tyrophagus putrescentiae mixed up one another were used) which were generally known as primary cause of allergy, which was distributed from the parasitology class of the medical college of Yonsei University in Korea. After the opening the lid of the tube containing twenty mites, the mites were exposed to the environment with the ozone of 50 ppm and the humidity of 72% for 2 hours while the mites were not exposed directly to the ultraviolet rays. After exposition of the mites to the ozone for a given time period, the number of the surviving mites and the number of the dead mites were counted by means of a microscopic examination."}}, "data": [{"compound": "O=[O+][O-]", "note": "[ozone]", "values": [{"measurement": "Number of surviving microorganisms (surviving colonies)", "setting": "[1]; exposure 10 min.", "value": "12,400"}, {"measurement": "Number of surviving microorganisms (surviving colonies)", "setting": "[1]; exposure 20 min.", "value": "2,840"}, {"measurement": "Number of surviving microorganisms (surviving colonies)", "setting": "[1]; exposure 30 min.", "value": 960}, {"measurement": "Number of surviving microorganisms (surviving colonies)", "setting": "[1]; exposure 40 min.", "value": 388}, {"measurement": "Number of surviving microorganisms (surviving colonies)", "setting": "[1]; exposure 50 min.", "value": 192}, {"measurement": "Number of surviving microorganisms (surviving colonies)", "setting": "[1]; exposure 60 min.", "value": 118}, {"measurement": "Number of surviving microorganisms (surviving colonies)", "setting": "Escherichia coli DH12S; exposure 10 min.", "value": "11,000"}, {"measurement": "Number of surviving microorganisms (surviving colonies)", "setting": "Escherichia coli DH12S; exposure 20 min.", "value": "2,700"}, {"measurement": "Number of surviving microorganisms (surviving colonies)", "setting": "Escherichia coli DH12S; exposure 30 min.", "value": 559}, {"measurement": "Number of surviving microorganisms (surviving colonies)", "setting": "Escherichia coli DH12S; exposure 40 min.", "value": 270}, {"measurement": "Number of surviving microorganisms (surviving colonies)", "setting": "Escherichia coli DH12S; exposure 50 min.", "value": 101}, {"measurement": "Number of surviving microorganisms (surviving colonies)", "setting": "Escherichia coli DH12S; exposure 60 min.", "value": 52}, {"measurement": "Number of surviving microorganisms (surviving colonies)", "setting": "[2]; exposure 10 min.", "value": "1,220,000"}, {"measurement": "Number of surviving microorganisms (surviving colonies)", "setting": "[2]; exposure 20 min.", "value": "101,000"}, {"measurement": "Number of surviving microorganisms (surviving colonies)", "setting": "[2]; exposure 30 min.", "value": "9,100"}, {"measurement": "Number of surviving microorganisms (surviving colonies)", "setting": "[2]; exposure 40 min.", "value": "1,260"}, {"measurement": "Number of surviving microorganisms (surviving colonies)", "setting": "[2]; exposure 50 min.", "value": 345}, {"measurement": "Number of surviving microorganisms (surviving colonies)", "setting": "[2]; exposure 60 min.", "value": 96}, {"measurement": "Killing of young mites", "setting": "[3]", "value": "all of the young mites were killed"}, {"measurement": "State of surviving large mites", "setting": "[3]", "value": "a few surviving large mites were not able to be active normally, which were dead as times went by"}, {"measurement": "Number of dead mites", "setting": "[3]; twenty mites, microscopic examination", "value": "most of the mites (for example, seventeen mites) were killed"}]}]}
